{"source": "ChEMBL document CHEMBL4732064", "about": "“Structure-activity relationship studies of phenothiazine derivatives as a new class of ferroptosis inhibitors together with the therapeutic effect in an ischemic stroke model” (Eur J Med Chem, 2021)", "key": {"Rattus norvegicus [1]": {"tested_on": "Rattus norvegicus", "test": "Protective activity in Sprague-Dawley rat model of middle cerebral artery occlusion-induced ischemia-reperfusion injury assessed as prevention of reperfusion injury at 5 mg/kg, iv measured after 24 hrs of post reperfusion by TTC staining based assay", "assay_type": "functional, organism-based"}, "MDA-MB-231": {"tested_on": "MDA-MB-231", "test": "Inhibition of erastin-induced ferroptosis in human MDA-MB-231 cells assessed as cell viability incubated for 48 hrs by MTT assay", "assay_type": "functional, cell-based", "details": "MDA-MB-231, 48 h"}, "HT-1080 [2]": {"tested_on": "HT-1080", "test": "Inhibition of rotenone-induced oxidative cell death in human HT-1080 cells at 10 uM incubated for 24 hrs", "assay_type": "functional, cell-based"}, "HT-1080 [3]": {"tested_on": "HT-1080", "test": "Inhibition of ERK expression in erastin-induced human HT-1080 cell ferroptosis model at 0.01 to 1 uM after 10 hrs by Western blot analysis", "assay_type": "functional", "details": "dose 0.01-1 µM"}, "HT-1080 [4]": {"tested_on": "HT-1080", "test": "Increase in GSH level in erastin-induced human HT-1080 cell ferroptosis model at 0.01 to 1 uM", "assay_type": "functional", "details": "dose 0.01-1 µM"}, "[5]": {"target": "D(2) dopamine receptor (Homo sapiens) (UniProt P14416)", "sequence (P14416 whole entry)": "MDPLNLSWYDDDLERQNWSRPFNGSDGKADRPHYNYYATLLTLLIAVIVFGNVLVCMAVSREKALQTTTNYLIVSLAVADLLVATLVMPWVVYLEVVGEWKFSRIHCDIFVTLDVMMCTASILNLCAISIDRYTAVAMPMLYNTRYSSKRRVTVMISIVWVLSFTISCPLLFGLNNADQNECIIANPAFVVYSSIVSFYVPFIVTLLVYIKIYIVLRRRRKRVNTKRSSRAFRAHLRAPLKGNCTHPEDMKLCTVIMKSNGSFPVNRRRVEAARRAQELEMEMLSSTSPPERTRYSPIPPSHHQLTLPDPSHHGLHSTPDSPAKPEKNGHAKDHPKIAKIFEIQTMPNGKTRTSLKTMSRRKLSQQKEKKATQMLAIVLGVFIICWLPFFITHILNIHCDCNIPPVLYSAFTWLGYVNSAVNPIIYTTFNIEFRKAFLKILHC", "test": "Antagonist activity at DRD2L (unknown origin) by FLIPR assay"}, "[6]": {"target": "Bifunctional arginine demethylase and lysyl-hydroxylase JMJD6 (Homo sapiens, UniProt Q6NYC1)", "test": "Inhibition of JMJD6 (unknown origin)"}, "HT-1080 [7]": {"tested_on": "HT-1080", "test": "Antioxidant activity in erastin-induced human HT-1080 cell ferroptosis model assessed as decrease in lipid ROS accumulation at 0.01 to 1 uM incubated for 8 to 24 hrs by BODIPY 581/591 C11 staining based flow cytometric analysis", "assay_type": "functional", "details": "dose 0.01-1 µM, time 8-24 hrs"}, "HT-1080 [8]": {"tested_on": "HT-1080", "test": "Inhibition of H2O2-induced oxidative cell death in human HT-1080 cells at 10 uM incubated for 24 hrs", "assay_type": "functional, cell-based"}, "Calu-1": {"tested_on": "Calu-1", "test": "Inhibition of erastin-induced ferroptosis in human Calu-1 cells assessed as cell viability incubated for 48 hrs by MTT assay", "assay_type": "functional, cell-based", "details": "Calu-1, 48 h"}, "[9]": {"test": "Antioxidant activity assessed as DPPH radical scavenging activity at 0.05 mM incubated for 10 mins", "assay_type": "functional"}, "HT-1080 [10]": {"tested_on": "HT-1080", "test": "Inhibition of erastin-induced ferroptosis in human HT-1080 cells assessed as cell viability incubated for 48 hrs by MTT assay", "assay_type": "functional, cell-based", "details": "HT-1080, 48 h"}, "[11]": {"test": "Metal chelating activity assessed as iron chelation"}, "[12]": {"target": "T1, Histone acetyltransferase type B catalytic subunit (Homo sapiens, UniProt O14929)", "T1 sequence (O14929 whole entry)": "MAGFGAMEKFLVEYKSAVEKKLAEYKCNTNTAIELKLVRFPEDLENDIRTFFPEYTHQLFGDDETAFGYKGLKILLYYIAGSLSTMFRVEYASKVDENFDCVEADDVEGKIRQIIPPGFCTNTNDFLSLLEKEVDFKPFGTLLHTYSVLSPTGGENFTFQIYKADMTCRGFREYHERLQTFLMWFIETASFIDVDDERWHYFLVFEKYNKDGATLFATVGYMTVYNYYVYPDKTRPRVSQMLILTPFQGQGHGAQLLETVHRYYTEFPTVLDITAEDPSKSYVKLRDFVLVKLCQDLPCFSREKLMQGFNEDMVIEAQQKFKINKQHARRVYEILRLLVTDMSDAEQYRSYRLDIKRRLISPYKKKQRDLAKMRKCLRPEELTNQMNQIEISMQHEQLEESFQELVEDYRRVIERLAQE", "test": "Inhibition of HAT1 (unknown origin)"}, "Rattus norvegicus [13]": {"tested_on": "Rattus norvegicus", "test": "Protective activity in Sprague-Dawley rat model of middle cerebral artery occlusion-induced ischemia-reperfusion injury assessed as reduction in neurological score at 5 mg/kg, iv measured after 24 hrs of post reperfusion […]", "assay_type": "functional, organism-based"}, "Rattus norvegicus [14]": {"tested_on": "Rattus norvegicus", "test": "Protective activity in Sprague-Dawley rat model of middle cerebral artery occlusion-induced ischemia-reperfusion injury assessed as decrease in cerebral infarction volume at 5 mg/kg, iv measured after 24 hrs of post reperfusion by TTC staining based assay", "assay_type": "functional, organism-based"}, "[15]": {"target": "Muscarinic acetylcholine receptor M3 (Homo sapiens) (UniProt P20309)", "sequence (P20309 whole entry, looked up)": "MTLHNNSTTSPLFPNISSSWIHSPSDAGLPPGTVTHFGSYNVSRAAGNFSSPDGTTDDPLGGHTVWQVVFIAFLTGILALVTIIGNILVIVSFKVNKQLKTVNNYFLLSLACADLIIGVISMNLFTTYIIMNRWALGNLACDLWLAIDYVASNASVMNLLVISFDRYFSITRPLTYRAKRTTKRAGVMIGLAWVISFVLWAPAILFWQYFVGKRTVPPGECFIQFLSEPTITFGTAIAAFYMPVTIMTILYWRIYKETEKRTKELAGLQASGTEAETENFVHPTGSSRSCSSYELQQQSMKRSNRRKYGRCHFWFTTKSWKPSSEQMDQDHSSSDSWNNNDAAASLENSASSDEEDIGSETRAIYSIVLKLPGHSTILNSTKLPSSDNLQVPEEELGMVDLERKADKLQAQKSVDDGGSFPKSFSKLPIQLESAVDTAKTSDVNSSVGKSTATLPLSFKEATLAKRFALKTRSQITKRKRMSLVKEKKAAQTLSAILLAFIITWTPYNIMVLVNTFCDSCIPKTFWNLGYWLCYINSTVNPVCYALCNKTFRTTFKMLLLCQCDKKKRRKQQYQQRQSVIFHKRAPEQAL", "test": "Antagonist activity at CHRM3 (unknown origin) by FLIPR assay"}}, "note": "The source made the active and inactive calls. The rule behind the calls is not given here.", "data": [{"smiles": "CC(c1ccc(N2CCN(C)CC2)cc1)c1ccc2c(c1)Nc1ccccc1S2", "note": "(configuration not stated)", "values": [{"measurement": "Activity", "setting": "Rattus norvegicus [1]", "result": "Active"}, {"measurement": "EC50", "setting": "MDA-MB-231", "result": 0.424, "unit": "nM"}, {"measurement": "inhibition", "setting": "HT-1080 [2]", "result": "inactive"}, {"measurement": "inhibition", "setting": "HT-1080 [3]", "result": "inactive"}, {"measurement": "Activity", "setting": "HT-1080 [4]", "result": "Active"}, {"measurement": "Activity", "setting": "[5]", "result": "inactive"}, {"measurement": "IC50", "setting": "[6]", "result": "> 10000", "unit": "nM"}, {"measurement": "Activity", "setting": "HT-1080 [7]", "result": "Active"}, {"measurement": "Activity", "setting": "HT-1080 [8]", "result": "inactive"}, {"measurement": "EC50", "setting": "Calu-1", "result": 1.88, "unit": "nM"}, {"measurement": "Activity", "setting": "[9]", "result": "Active"}, {"measurement": "EC50", "setting": "HT-1080 [10]", "result": 0.5, "unit": "nM"}, {"measurement": "Activity", "setting": "[11]", "result": "inactive"}, {"measurement": "IC50", "setting": "[12]", "result": "> 10000", "unit": "nM"}, {"measurement": "Activity", "setting": "Rattus norvegicus [13]", "result": "Active"}, {"measurement": "Activity", "setting": "Rattus norvegicus [14]", "result": "Active"}, {"measurement": "Activity", "setting": "[15]", "result": "inactive"}]}]}
